Experimental data as given in PubChem BioAssay AID2060896 (Molecular Pharmacology Branch, DTP, NCI, 2025).
Values belong to the compound of their own block, whether it stands above or below them.

Test system: 941728-121-R-J1-PDC complex spheroid viability
Test: Anticancer human tumor 941728-121-R-J1-PDC patient-derived lung adenocarcinoma cell line growth inhibition [RAS]
Details: for IC50: curve of first compound; for viability, T/C: stronger effect = lower value
Excerpt: RAS pathway inhibitors in Combinations in Complex Spheroids
A high-throughput screen of multi-cell type tumor spheroids was designed to identify active combinations of RAS pathway inhibitors and targeted small molecules. Complex spheroids include a stromal component modeled by human endothelial cells (HUVEC) and fibroblasts modeled by human mesenchymal stem cells (MSCs). The concentration ranges selected for each drug and investigational agent were based upon clinically achievable concentrations if the clinical Cmax of the agent was known.
Compounds. The drugs and investigational agents: abemaciclib (NSC768073), cobimetinib (NSC768068), divarasib (GDC6063, NSC841802), docetaxel (NSC628503), GDC-1971 (RLY-1971, NSC841576), gemcitabine (NSC613327), inavolisib (NSC800729), ipatasertib (NSC767898), KB-0742 (NSC834161), MRTX-1133 (NSC836407), osimertinib (NSC779217), RMC-4630 (NSC839698), RMC-6236 (NSC851965), RMC-6291 (NSC852671), Ro-3306 (NSC812927), sapanisertib (NSC764658), SN-38 (NSC673596), staurosporine (NSC755774), SY5609 (NSC837396), and tovorafenib (DAY101, NSC766906), were obtained from the National Cancer Institute (NCI) Developmental Therapeutics Program Chemical Repository. The FDA-approved anticancer drug set is available from the NCI Developmental Therapeutics Program. […] The stock solutions were prepared in dimethyl sulfoxide (DMSO, Sigma-Aldrich, St. Louis, MO, cat. D2650) at 800-fold the tested concentration and stored at -70 degrees C prior to their use. All drugs and investigational agents were tested over a range starting from a high concentration at or near the clinical Cmax and decreasing in half-log increments. If the clinical Cmax for an agent had not been determined, the highest concentration tested was 10 microM.
Cell Culture. All cells were maintained in an incubator at 37 degrees C and 5% CO2 with 95% humidity. The PDC lines were cultured according to standard operating procedures established by the NCI PDMR. All PDCs were thawed and cultured in Matrigel-coated flasks prepared with a working solution of 1X Ham's F-12 nutrient mix, without supplementation (Invitrogen, Waltham, MA, cat. 11765054), 100 U/mL penicillin-streptomycin (Invitrogen, cat. 15140122), and 2.5% Matrigel (Corning Inc., Corning, NY, cat. 354248) for the first three passages. The 362531-283-R-J2-PDC and 782815-120-R-J1-PDC lines were cultured in 6C/Colon 1B media, which includes advanced DMEM/F-12 (Thermo Fisher Scientific, cat. 12634028), 10 mM HEPES (Thermo Fisher Scientific, cat. 15630080), 1X GlutaMAX supplement (Thermo Fisher Scientific, cat. 35050061), 0.1 mg/mL primocin (InvivoGen, San Diego, CA, cat. ant-pm-2), 10% defined fetal bovine serum, heat inactivated (HyClone Laboratories Inc., Logan, UT, cat. SH30070.03HI), 50% L-WRN conditioned media (ATCC, cat. CRL-3276), 1.25 mM N-Acetyl-L-cysteine (Sigma-Aldrich, cat. A9165), 10 mM nicotinamide (Sigma-Aldrich, cat. N0636), 1X B-27 supplement (Thermo Fisher Scientific, cat. 17504044), 1X N-2 supplement (Thermo Fisher Scientific, cat. 17502048), 50 ng/mL human EGF (Thermo Fisher Scientific, cat. PHG0311), and 10 microM Y-27632 dihydrochloride (Tocris Bioscience, cat. 1254). The K12877-001-R-J1-PDC line was cultured in 6I media, which includes all 6C/Colon 1B media plus 10 ng/mL human FGF-10 (PeproTech, cat. 100-26), 1 ng/mL human FGF-2 (PeproTech, cat. 100-18B), 1 µM prostaglandin E2 (Tocris Bioscience, cat. 2296), […] hydrocortisone (Sigma-Aldrich, cat. H4001), and […] bovine insulin (Sigma-Aldrich, cat. I6634). The K86415-001-R-J1-PDC line was cultured in 6D media, which includes all 6C/Colon 1B media components minus the L-WRN conditioned media. The 485176-168-R4-J1-PDC was cultured in PANC media, which includes all 6C/Colon 1B media plus 100 ng/mL human FGF-10 (PeproTech, cat. 100-26), 500 nM SB-431542 (Selleckchem, cat. S1067), and 10 nM gastrin (Tocris Bioscience, cat. 3006). […]

[1] = second compound 0.0316 µM, first compound 0.0316 µM
[2] = second compound 0.0316 µM, first compound 0.1 µM
[3] = second compound 0.1 µM, first compound 0.0316 µM
[4] = second compound 0.1 µM, first compound 0.1 µM
[5] = second compound 0.316 µM, first compound 0.0316 µM
[6] = second compound 0.316 µM, first compound 0.1 µM
[7] = second compound 1 µM, first compound 0.0316 µM
[8] = second compound 1 µM, first compound 0.1 µM
[9] = second compound 3.16 µM, first compound 0.0316 µM
[10] = second compound 3.16 µM, first compound 0.1 µM
[11] = second compound 10 µM, first compound 0.0316 µM
[12] = second compound 10 µM, first compound 0.1 µM
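Further: spheroids exposed to compounds for 7 days before readout.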
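Wherever viability, T/C is given: 100% = DMSO vehicle control viability.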

IC50 (second compound 0.0316 µM): 3.97 nM | IC50 (second compound 0.1 µM): 2.76 nM | IC50 (second compound 0.316 µM): 1.26 nM | IC50 (second compound 1 µM): < 0.316 nM | IC50 (second compound 3.16 µM): < 0.316 nM | IC50 (second compound 10 µM): < 0.316 nM
Compound: CC(C)n1nc(-c2ccc3oc(N)nc3c2)c2c(N)ncnc21 + C#Cc1c(F)ccc2cc(O)cc(-c3ncc4c(N5CC6CCC(C5)N6)nc(OCC56CCCN5CC(F)C6)nc4c3F)c12
viability, T/C (second compound 0.0316 µM, first compound 0.000316 µM): 78.9% | viability, T/C (second compound 0.0316 µM, first compound 0.001 µM): 70.5% | viability, T/C (second compound 0.0316 µM, first compound 0.00316 µM): 51% | viability, T/C (second compound 0.0316 µM, first compound 0.01 µM): 39.2% | viability, T/C [1]: 31.6% | viability, T/C [2]: 26.3% | viability, T/C (second compound 0.1 µM, first compound 0.000316 µM): 68.5% | viability, T/C (second compound 0.1 µM, first compound 0.001 µM): 68.6% | viability, T/C (second compound 0.1 µM, first compound 0.00316 µM): 46.3% | viability, T/C (second compound 0.1 µM, first compound 0.01 µM): 33.9% | viability, T/C [3]: 27.8% | viability, T/C [4]: 26.6% | viability, T/C (second compound 0.316 µM, first compound 0.000316 µM): 60.8% | viability, T/C (second compound 0.316 µM, first compound 0.001 µM): 51.7% | viability, T/C (second compound 0.316 µM, first compound 0.00316 µM): 42% | viability, T/C (second compound 0.316 µM, first compound 0.01 µM): 34.5% | viability, T/C [5]: 26.7% | viability, T/C [6]: 26.3% | viability, T/C (second compound 1 µM, first compound 0.000316 µM): 33.6% | viability, T/C (second compound 1 µM, first compound 0.001 µM): 35.9% | viability, T/C (second compound 1 µM, first compound 0.00316 µM): 31.3% | viability, T/C (second compound 1 µM, first compound 0.01 µM): 23.7% | viability, T/C [7]: 21.1% | viability, T/C [8]: 18.8% | viability, T/C (second compound 3.16 µM, first compound 0.000316 µM): 29.4% | viability, T/C (second compound 3.16 µM, first compound 0.001 µM): 30.4% | viability, T/C (second compound 3.16 µM, first compound 0.00316 µM): 25.9% | viability, T/C (second compound 3.16 µM, first compound 0.01 µM): 20.2% | viability, T/C [9]: 18.4% | viability, T/C [10]: 15.9% | viability, T/C (second compound 10 µM, first compound 0.000316 µM): 24.1% | viability, T/C (second compound 10 µM, first compound 0.001 µM): 22.3% | viability, T/C (second compound 10 µM, first compound 0.00316 µM): 20% | viability, T/C (second compound 10 µM, first compound 0.01 µM): 15.9% | viability, T/C [11]: 11.5% | viability, T/C [12]: 9.78%

IC50 (second compound 0.0316 µM): 75.7 nM | IC50 (second compound 0.1 µM): 49.4 nM | IC50 (second compound 0.316 µM): < 31.6 nM | IC50 (second compound 1 µM): < 31.6 nM | IC50 (second compound 3.16 µM): < 31.6 nM | IC50 (second compound 10 µM): < 31.6 nM
Compound: CC(Nc1ccc2c(c1)OCCn1cc(N3C(=O)OCC3C(F)F)nc1-2)C(N)=O (centres undefined) + C#Cc1c(F)ccc2cc(O)cc(-c3ncc4c(N5CC6CCC(C5)N6)nc(OCC56CCCN5CC(F)C6)nc4c3F)c12
viability, T/C [1]: 64.5% | viability, T/C [2]: 44.4% | viability, T/C (second compound 0.0316 µM, first compound 0.316 µM): 37% | viability, T/C (second compound 0.0316 µM, first compound 1 µM): 35.9% | viability, T/C (second compound 0.0316 µM, first compound 3.16 µM): 29% | viability, T/C (second compound 0.0316 µM, first compound 10 µM): 29.6% | viability, T/C [3]: 56.9% | viability, T/C [4]: 39.5% | viability, T/C (second compound 0.1 µM, first compound 0.316 µM): 33.2% | viability, T/C (second compound 0.1 µM, first compound 1 µM): 28.1% | viability, T/C (second compound 0.1 µM, first compound 3.16 µM): 31.3% | viability, T/C (second compound 0.1 µM, first compound 10 µM): 32.5% | viability, T/C [5]: 40.3% | viability, T/C [6]: 38.1% | viability, T/C (second compound 0.316 µM, first compound 0.316 µM): 33.4% | viability, T/C (second compound 0.316 µM, first compound 1 µM): 29.9% | viability, T/C (second compound 0.316 µM, first compound 3.16 µM): 30.4% | viability, T/C (second compound 0.316 µM, first compound 10 µM): 23.1% | viability, T/C [7]: 33.8% | viability, T/C [8]: 29.8% | viability, T/C (second compound 1 µM, first compound 0.316 µM): 27.6% | viability, T/C (second compound 1 µM, first compound 1 µM): 27.8% | viability, T/C (second compound 1 µM, first compound 3.16 µM): 27.4% | viability, T/C (second compound 1 µM, first compound 10 µM): 25.9% | viability, T/C [9]: 28.3% | viability, T/C [10]: 28.4% | viability, T/C (second compound 3.16 µM, first compound 0.316 µM): 28% | viability, T/C (second compound 3.16 µM, first compound 1 µM): 23.4% | viability, T/C (second compound 3.16 µM, first compound 3.16 µM): 26.2% | viability, T/C (second compound 3.16 µM, first compound 10 µM): 23.2% | viability, T/C [11]: 22.8% | viability, T/C [12]: 21.2% | viability, T/C (second compound 10 µM, first compound 0.316 µM): 19.5% | viability, T/C (second compound 10 µM, first compound 1 µM): 18.5% | viability, T/C (second compound 10 µM, first compound 3.16 µM): 17.4% | viability, T/C (second compound 10 µM, first compound 10 µM): 15.4%
